One may read the EC50 as the concentration that produces a half-maximal response. Low values mean greater potency, high ones weaker potency.

The source made the active and inactive calls. The rule behind the calls is not given here.

The subject of data set [1] is HEK293. As to the kind of experiment: Transactivation of NF-kappaB expressed in HEK293 cells co-transfected TLR2/TLR3/TLR4/TLR5/TLR7/TLR8/TLR9/Nod-1 by alkaline phosphatase reporter gene assay. The format is cell-based. Background: Reporter assays use an easily measured gene product as a stand-in for the process of interest.
Data set [2] has as its system HEK293. As to the kind of experiment: Transactivation of NF-kappaB expressed in HEK293 cells by alkaline phosphatase reporter gene assay. In kind it is cell-based.
The subject of data set [3] is Blood. The data set is described as follows: Pro-inflammatory activity in human whole blood assessed as TNF-alpha production upto 50 uM. In kind it is functional, tissue-based.
Data set [4] relates to Blood. As to the kind of experiment: Pro-inflammatory activity in human whole blood assessed as IL1-beta production upto 50 uM. The format is functional, tissue-based.
Data set [5] relates to Blood. The data set is described as follows: Pro-inflammatory activity in human whole blood assessed as IL-6 production upto 50 uM. In kind it is functional, tissue-based.
Data set [6] concerns Blood. As to the kind of experiment: Pro-inflammatory activity in human whole blood assessed as IL-8 production upto 50 uM. In kind it is functional, tissue-based.
The test system of data set [7] is Blood. As to the kind of experiment: Pro-inflammatory activity in human whole blood assessed as IL-12 production upto 50 uM. In kind it is functional, tissue-based.
Data set [8] deals with Blood. As to the kind of experiment: Pro-inflammatory activity in human whole blood assessed as IL-18 production upto 50 uM. The format is functional, tissue-based.
The test system of data set [9] is Blood. The data set is described as follows: Antiinflammatory activity in human whole blood assessed as IL-10 production upto 50 uM. In kind it is functional, tissue-based.
For data set [10], the system named is PBMC. As to the kind of experiment: Immunostimulatory activity against human PBMC by transcriptional profiling. The format is functional, cell-based.
Data set [11] deals with T1, C-C chemokine receptor type 1 (Homo sapiens, UniProt P32246).
T1 sequence (P32246 whole entry): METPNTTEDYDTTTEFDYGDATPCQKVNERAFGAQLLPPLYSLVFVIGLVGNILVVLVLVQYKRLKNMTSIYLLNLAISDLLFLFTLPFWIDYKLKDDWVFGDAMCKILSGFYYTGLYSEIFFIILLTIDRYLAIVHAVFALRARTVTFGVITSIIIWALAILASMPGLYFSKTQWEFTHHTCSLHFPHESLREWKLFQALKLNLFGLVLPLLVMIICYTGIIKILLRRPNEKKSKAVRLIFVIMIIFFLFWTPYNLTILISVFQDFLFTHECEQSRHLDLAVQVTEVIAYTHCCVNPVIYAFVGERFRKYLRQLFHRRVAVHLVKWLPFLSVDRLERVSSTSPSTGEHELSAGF
As to the kind of experiment: Agonist activity at human CCR1 expressed in CHO cells by cellular dielectric spectroscopy. In kind it is functional, cell-based.

The target in data set [12] is C-C chemokine receptor type 2 (Homo sapiens) (UniProt P41597). As to the kind of experiment: Agonist activity at CCR2 expressed in CHO cells at 10^-6 to 10^-5 M by cellular dielectric spectroscopy. In kind it is functional, cell-based.
Data set [13] addresses T2, C-C chemokine receptor type 3 (Homo sapiens) (UniProt P51677).
T2 sequence (whole entry): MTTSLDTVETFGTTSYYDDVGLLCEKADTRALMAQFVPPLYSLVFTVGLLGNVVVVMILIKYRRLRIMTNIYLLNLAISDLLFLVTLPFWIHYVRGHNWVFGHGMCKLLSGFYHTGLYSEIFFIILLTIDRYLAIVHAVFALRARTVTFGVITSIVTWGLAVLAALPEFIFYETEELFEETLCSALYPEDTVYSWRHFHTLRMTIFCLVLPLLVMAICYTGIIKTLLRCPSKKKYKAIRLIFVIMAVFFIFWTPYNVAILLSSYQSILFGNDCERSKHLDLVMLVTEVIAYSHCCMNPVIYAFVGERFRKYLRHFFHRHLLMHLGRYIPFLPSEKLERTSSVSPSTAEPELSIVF
As to the kind of experiment: Agonist activity at CCR3 expressed in CHO cells at 10^-6 to 10^-5 M by cellular dielectric spectroscopy. In kind it is functional, cell-based.

The target in data set [14] is T3, C-X-C chemokine receptor type 2 (Homo sapiens) (UniProt P25025).
T3 sequence (whole entry): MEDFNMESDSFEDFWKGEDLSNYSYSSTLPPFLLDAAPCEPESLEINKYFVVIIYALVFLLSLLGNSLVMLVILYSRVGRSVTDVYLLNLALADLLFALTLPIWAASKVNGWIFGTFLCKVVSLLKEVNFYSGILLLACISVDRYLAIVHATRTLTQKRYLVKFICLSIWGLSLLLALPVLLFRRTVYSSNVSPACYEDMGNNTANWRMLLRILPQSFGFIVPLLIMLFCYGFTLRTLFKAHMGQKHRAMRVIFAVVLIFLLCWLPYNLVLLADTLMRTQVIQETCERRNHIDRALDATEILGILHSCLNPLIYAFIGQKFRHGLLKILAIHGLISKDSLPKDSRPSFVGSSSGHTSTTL
The data set is described as follows: Agonist activity at CXCR2 expressed in CHO cells at 10^-6 to 10^-5 M by cellular dielectric spectroscopy. In kind it is functional, cell-based.

For data set [15], the target named is C-X-C chemokine receptor type 4 (Homo sapiens) (UniProt P61073). The data set is described as follows: Agonist activity at CXCR4 expressed in CHO cells at 10^-6 to 10^-5 M by cellular dielectric spectroscopy. The format is functional, cell-based.
Data set [16] relates to Mus musculus. The data set is described as follows: Adjuvantic activity in CF-1 mouse assessed as increase in bovine alpha-lactalbumin-elicited antibodies production at 50 ug, im followed by booster dose administered on day 14 measured after 21 days by surface-plasmon resonance. The format is functional, organism-based.
Data set [17] concerns Mus musculus. The data set is described as follows: Adjuvantic activity in CF-1 mouse assessed as increase in bovine alpha-lactalbumin-elicited IgG2a production at 50 ug, im followed by booster dose administered on day 14 measured after 21 days. The format is functional, organism-based.
Data set [18] has as its system Mus musculus. The data set is described as follows: Adjuvantic activity in CF-1 mouse assessed as increase in bovine alpha-lactalbumin-elicited IgG1 production at 50 ug, im followed by booster dose administered on day 14 measured after 21 days. The format is functional, organism-based.
Data set [19] relates to Salmonella typhimurium. As to the kind of experiment: Mutagenic activity in Salmonella Typhimurium TA100-S9 by Ames test. The format is toxicity, organism-based. The following applies: salmonella enterica subsp. enterica serovar typhimurium. (In general: In the Ames test, an excess of revertant colonies over the control signals mutagenicity.)
For data set [20], the system named is Mus musculus. The data set is described as follows: Toxicity in CF-1 mouse assessed as mortality up to 100 mg/kg, ip administered as single dose measured at 48 hrs. In kind it is organism-based. Also on record: dose 100 mg/kg, route intraperitoneal. The following applies: in vivo.
Data set [21] deals with Salmonella typhimurium. The data set is described as follows: Mutagenic activity in Salmonella Typhimurium TA1535-S9 by Ames test. In kind it is toxicity, organism-based. The following applies: salmonella enterica subsp. enterica serovar typhimurium.
The subject of data set [22] is Salmonella typhimurium. The data set is described as follows: Mutagenic activity in Salmonella Typhimurium TA98-S9 by Ames test. The format is toxicity, organism-based. The following applies: salmonella enterica subsp. enterica serovar typhimurium.
For data set [23], the system named is PBMC. As to the kind of experiment: Modulation of inflammation in human PBMC by transcriptional profiling. In kind it is functional, cell-based.

Chain of C-C chemokine receptor type 2 (Homo sapiens) (P41597 whole entry, looked up): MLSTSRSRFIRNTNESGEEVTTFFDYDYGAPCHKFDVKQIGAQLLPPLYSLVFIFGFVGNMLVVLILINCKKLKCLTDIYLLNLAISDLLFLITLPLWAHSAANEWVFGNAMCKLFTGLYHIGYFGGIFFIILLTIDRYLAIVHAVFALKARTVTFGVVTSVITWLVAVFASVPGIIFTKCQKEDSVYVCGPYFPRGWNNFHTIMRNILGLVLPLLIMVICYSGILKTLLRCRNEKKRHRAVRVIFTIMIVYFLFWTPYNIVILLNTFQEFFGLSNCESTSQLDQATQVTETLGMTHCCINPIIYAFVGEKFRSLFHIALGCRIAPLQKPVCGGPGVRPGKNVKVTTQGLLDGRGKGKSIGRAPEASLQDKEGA
Chain of C-X-C chemokine receptor type 4 (Homo sapiens) (P61073 whole entry): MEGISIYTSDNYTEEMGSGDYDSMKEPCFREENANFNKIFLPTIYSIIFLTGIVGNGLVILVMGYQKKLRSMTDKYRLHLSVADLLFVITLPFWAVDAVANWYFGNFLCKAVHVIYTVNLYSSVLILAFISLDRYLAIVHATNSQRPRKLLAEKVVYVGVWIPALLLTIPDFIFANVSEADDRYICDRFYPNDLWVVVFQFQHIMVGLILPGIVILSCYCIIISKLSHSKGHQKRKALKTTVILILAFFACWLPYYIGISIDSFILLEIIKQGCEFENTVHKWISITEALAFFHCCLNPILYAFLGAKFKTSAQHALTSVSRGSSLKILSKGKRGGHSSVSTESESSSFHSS

On to `Clc1ccc2c(NCCCCCCCCCCNc3ccnc4cc(Cl)ccc34)ccnc2c1`, for which, in [1], the outcome was inactive.

As to `Clc1ccc2c(NCCCCCCNc3ccnc4cc(Cl)ccc34)ccnc2c1`, the result in [1] was inactive.

As to `Clc1ccc2c(NCCCNc3ccnc4cc(Cl)ccc34)ccnc2c1`, the result in data set [1] was inactive.

As to `Clc1ccc2c(NCCCCNc3ccnc4cc(Cl)ccc34)ccnc2c1`, the outcome in data set [1], in [3], in data set [4], in data set [5], in data set [6] and in [7] was inactive. The result in [8], in data set [9], in data set [10], in data set [12], in [13] and in [14] was inactive. Moreover, the outcome in [15] and in data set [23] was inactive. For the same compound, the result in data set [2], in [16], in [17] and in [18] was Active. This compound returned an EC50 in data set [11] of 2 µM. The Activity result in data set [19], in data set [20], in data set [21] and in [22] was “Non-toxic” each time.

In the case of `Clc1ccc2c(NCCCCCNc3ccnc4cc(Cl)ccc34)ccnc2c1`, the result in data set [1] was inactive.

Regarding `CCCCCCCCCCCCCC(=O)OC(CCCCCCCCCCC)CC(=O)N[C@H]1[C@H](OC[C@H]2O[C@H](O)[C@H](NC(=O)CC(O)CCCCCCCCCCC)[C@@H](OC(=O)CC(O)CCCCCCCCCCC)[C@@H]2O)O[C@H](CO)[C@@H](OP(=O)(O)O)[C@@H]1OC(=O)CC(CCCCCCCCCCC)OC(=O)CCCCCCCCCCCCC` (stereo not given in full), the outcome in [16], in [17] and in [18] was Active.

On to `Clc1ccc2c(NCCCCCCCCCCCCNc3ccnc4cc(Cl)ccc34)ccnc2c1`, for which, in [1], the result was inactive.

Turning to `CCN(CC)CCCC(C)Nc1ccnc2cc(Cl)ccc12` (stereo not given), in data set [1], the outcome was inactive.

Regarding `Clc1ccc2c(NCCCCCCCCNc3ccnc4cc(Cl)ccc34)ccnc2c1`, the result in [1] was inactive.

For the compound `CCCCCCCCCCCCCCCC(=O)OCC(CSC[C@H](N)C(=O)N[C@@H](CO)C(=O)O)OC(=O)CCCCCCCCCCCCCCC` (stereo not given in full), the outcome in data set [16], in data set [17] and in data set [18] was Active.

For `CCCc1nc2c(N)nc3ccccc3c2s1`, the result in [3], in data set [4], in data set [5], in data set [6], in [7] and in data set [8] was Active. In addition, the result in data set [9] was Active.

Take `Clc1ccc2c(NCCCCCCCNc3ccnc4cc(Cl)ccc34)ccnc2c1`: the result in [1] was inactive.

Regarding `Clc1ccc2c(NCCNc3ccnc4cc(Cl)ccc34)ccnc2c1`, the outcome in [1] was inactive.

Source of the values: ChEMBL document CHEMBL1938311, “Potent adjuvantic activity of a CCR1-agonistic bis-quinoline” (Bioorg Med Chem Lett, 2012).
